Experimental findings from US20180310564A1, “Mesoionic Compound” (Nippon Kayaku Kabushiki Kaisha, priority 2015, published 2018) are described below.

Broadly, the mortality is the percentage killed.

Format in all cases: in vivo
For series [1], the system named is Cotton Aphid (Aphis gossypii). Put plainly: Test (foliar spraying) for controlling cotton aphid. To be noted: 120 h, 5 days after treatment; for mortality at 200 ppm: foliar spraying on cucumber leaf; for mortality at 50 ppm / mortality at 12.5 ppm / mortality at 3.1 ppm: foliar spraying. The protocol: A cucumber leaf cut to a diameter of 3.5 cm was placed on cotton wool moistened with water. Two adult cotton aphids were released there for offspring for 24 hours and the adult insects were then removed. […] After air-drying, the sample with cotton wool was placed in a plastic cup, which was covered with a lid and kept in a chamber at a constant temperature of 25° C. for rearing.

In series [2] the test system is Brown Planthopper (Nilaparvata lugens). Put plainly: Test (foliar dipping) for controlling brown planthopper. To be noted: 120 h, rice seedlings dipped, 5 days after treatment; for mortality at 200 ppm: third instar larvae. As to the method: […] After air-drying, the rice seedlings held with urethane in a glass cylinder having an inner diameter of 4.5 cm and a length of 14 cm were set up in a plastic cup containing 40 mL of water. Larvae of brown planthoppers in the third instar larva were released there. The cylinder was covered with a lid of medicine paper and kept in a chamber at a constant temperature of 25° C. for rearing.

For series [3], the system named is Southern Yellow thrips (Thrips palmi). Put plainly: Test (foliar spraying) for controlling southern yellow thrips. To be noted: 3 days after treatment; for mortality at 200 ppm: 72 h, foliar spraying on cucumber leaf, first instar larvae; for Mortality of Thrips palmi (%): foliar spraying. As to the method:
A cucumber leaf cut to a diameter of 1.5 cm was placed on cotton wool moistened with water. […] After air-drying, 5 larvae of southern yellow thrips in the first instar larva were released there. The sample with cotton wool was placed in a plastic cup, which was covered with a lid and kept in a chamber at a constant temperature of 25° C. for rearing.

The subject of series [4] is Brown Planthopper (Nilaparvata lugens). Put plainly: Test (root dipping) for controlling brown planthopper. To be noted: 200 ppm, root dipping of rice seedlings, larvae released after 2 days, 5 days after treatment. As to the method:
Ten sampled rice seedlings held with urethane in a glass cylinder having an inner diameter of 4.5 cm and a length of 14 cm were set up in a plastic cup containing 40 mL of chemical solution diluted to a desired concentration. After 2 days, 10 larvae of brown planthoppers in the third instar larva were released in the glass cylinder. The glass cylinder was covered with a lid of medicine paper and kept in a chamber at a constant temperature of 25° C. for rearing.

Series [5] has the same test system. Kind of series: Residual effect test (field experiment) for brown planthopper. As to the method:
The roots of five sampled rice seedlings were washed with water. Subsequently, 25 mg of the wettable powder prepared in accordance with Formulation Example 2 described above was wrapped in the roots. Each strain was made from the five seedlings. In outdoor artificial paddy fields made from wooden frames having a size of 60 cm by 90 cm, 10 strains were planted, respectively. The artificial paddy field was shielded by an insect screen with a mesh size of 1 mm, so that invasion of harmful insects from the outside was prevented. Into the test system, 40 to 100 adult brown planthoppers were released at fixed intervals so as to cause damage to the rice. On 16 to 51 days after the treatment, the numbers of surviving insects and dead insects were measured to calculate the density index. The density index was obtained from the following expression.

Counter-ions that a name gives are not always drawn.

Turning to `Cc1cccc(-c2c([O-])[n+](CCCCCCCC#N)c3ccccn3c2=O)c1` [Comparative compound 1], the mortality at 200 ppm in series [1] turned out to be 0%.
With `Cc1cccc(-c2c([O-])[n+](CCCCCC#N)c3ccccn3c2=O)c1` [Comparative compound 2], in series [1], the mortality at 50 ppm is 0% and the mortality at 200 ppm came out at 20%.
For the compound `Cc1cccc(-c2c([O-])[n+](CCCCC#N)c3ccccn3c2=O)c1` [Comparative compound 3], in series [1], the mortality at 12.5 ppm was determined as 0%, the mortality at 50 ppm turned out to be 40% and the mortality at 200 ppm worked out at 100%.
In series [1], `N#CCCC[n+]1c([O-])c(-c2cccc(C(F)(F)F)c2)c(=O)n2ccccc21` [Comparative compound 4] returned a mortality at 3.1 ppm of 0% and a mortality at 12.5 ppm of 75%.
On to `N#CC[n+]1c([O-])c(-c2cccc(C(F)(F)F)c2)c(=O)n2ccccc21` [Comparative compound 5], for which, in series [1], the mortality at 3.1 ppm turned out to be 0% and the mortality at 12.5 ppm was determined as 10%.
In series [1], `CC(C#N)C[n+]1c([O-])c(-c2cccc(C(F)(F)F)c2)c(=O)n2ccccc21` (stereo not shown) [Comparative compound 6] yielded a mortality at 12.5 ppm of 50% and a mortality at 50 ppm of 100%.
Take `CC(CC#N)[n+]1c([O-])c(-c2cccc(C(F)(F)F)c2)c(=O)n2ccccc21` (stereo not shown) [Comparative compound 7]: the mortality at 200 ppm in series [1] turned out to be 0%.
Take `N#CCC[n+]1c([O-])c(-c2ccccc2)c(=O)n2ccccc21` [Compound 1, 1-(2-cyanoethyl)-2-hydroxy-4-oxo-3-phenyl-4H-pyrido[1,2-a]pyrimidinium inner salt]: the mortality at 200 ppm in series [1], in series [2] and in series [3] was no less than 80% throughout. In series [2] (0.012 ppm), this compound came in with a mortality at 0.012 ppm of 50%. This compound gave a mortality at 0.024 ppm in series [2] (0.024 ppm) of 60%. This compound also displayed a mortality at 0.049 ppm in series [2] (0.049 ppm) of 70%.
Consider `COc1cccc(-c2c([O-])[n+](CCC#N)c3ccccn3c2=O)c1` [Compound 18, 1-(2-cyanoethyl)-2-hydroxy-3-(3-methoxyphenyl)-4-oxo-4H-pyrido[1,2-a]pyrimidinium inner salt], for which the mortality at 200 ppm in series [1], in series [2] and in series [3] was no less than 80% throughout. In addition, in series [2], the mortality at 0.01 ppm stood at 10%. This compound also returned a mortality at 0.02 ppm in series [2] of 20%. Also, the mortality at 0.05 ppm in series [2] was found to be 100%. Besides, the “Mortality of Thrips palmi (%)” value in series [3] (3.1 ppm), in series [3] (12.5 ppm) and in series [3] (50 ppm) was 100% in each case.
In series [1], `CCOc1cccc(-c2c([O-])[n+](CCC#N)c3ccccn3c2=O)c1` [Compound 21, 1-(2-cyanoethyl)-3-(3-ethoxyphenyl)-2-hydroxy-4-oxo-4H-pyrido[1,2-a]pyrimidinium inner salt] came in with a mortality at 200 ppm of no less than 80%. In series [2], this compound displayed a mortality at 0.01 ppm of 10%, a mortality at 0.02 ppm of 70%, a mortality at 0.05 ppm of 80% and a mortality at 200 ppm of no less than 80%. This compound yielded a mortality at 200 ppm in series [3] of no less than 80%.
Compound `Cc1cccn2c(=O)c(-c3cc(Cl)cc(Cl)c3)c([O-])[n+](Cc3cnc(Cl)s3)c12` [Dicloromezotiaz] gave a mortality at 12.5 ppm in series [1] of 0%. The compound also displayed a mortality at 50 ppm in series [1] of 90%. For the same compound, the mortality at 200 ppm in series [1] stood at 100%; in series [2], 0%; in series [3] it was 0%; in series [4], 0%.
Consider `N#Cc1nn(-c2c(Cl)cc(C(F)(F)F)cc2Cl)c(N)c1[S+]([O-])C(F)(F)F` (stereo not shown) [Fipronil, reference compound], for which the “Density index of Nilaparvata lugens” value in series [5] (After 16 days, 25 mg wettable powder (Formulation Example 2) at roots per strain, outdoor artificial paddy field) came out at 0; in series [5] (After 23 days, 25 mg wettable powder at roots per strain, artificial paddy field) it was 5.4; in series [5] (After 30 days, 25 mg wettable powder at roots per strain, artificial paddy field) it was 56.2; in series [5] (After 37 days, 25 mg wettable powder at roots per strain, artificial paddy field), 73.9; in series [5] (After 44 days, 25 mg wettable powder at roots per strain, artificial paddy field), 105; in series [5] (After 51 days, 25 mg wettable powder at roots per strain, artificial paddy field), 98.4.
